Measured values published in PMC6039436, “Radiobrominated benzimidazole-quinoline derivatives as Platelet-derived growth factor receptor beta (PDGFRβ) imaging probes” (Scientific Reports, 2018).
“Also recorded” adds a separate entry of the source.

What was measured:
[1] = system: BxPC3-luc cells (PDGFRβ-positive); experiment: Cellular uptake study (double tracer method); assay type: cell-based; settings: BxPC3-luc (PDGFRβ-positive) vs MCF7 (PDGFRβ-negative), 0.5–4 h
Description: Figure 5 Cellular uptake study. Time-dependent accumulation of (a) [^77Br]2 and [^125I]4 (b) [^77Br]3 and [^125I]5 in BxPC3-luc and MCF7 cells. Data were presented as mean ± SD for three samples.
Radiotracer uptake experiments in tumor cells were performed using BxPC3-luc and MCF7 cell lines. To compare the uptake between radiobrominated compounds, [^77Br]2 and [^77Br]3, and the corresponding radioiodinated compounds, [^125I]4 and [^125I]5, the cellular uptake experiments were performed by a double tracer method as described previously with a slight modification[30],[31],[35]. Briefly, the cells were seeded in RPMI 1640 medium containing 10% FBS and antibiotics on six-well plates (2 × 10^5 cells/well) for 24 h in a 5% CO2 incubator at 37 °C. After removal of medium, cells were incubated in medium without FBS containing [^77Br]2 (3.7 kBq/well) and [^125I]4 (3.7 kBq/well) or [^77Br]3 (3.7 kBq/well) and [^125I]5 (3.7 kBq/well) and tween-80 (0.1%) for 0.5, 1, 2 and 4 h. Radioiodinated compounds were prepared as described previously][24]. Cells were washed with ice-cold 1 mL of PBS and dissolved using 0.5 mL of 1 M NaOH and wells were washed with 1 M NaOH aqueous solution (0.5 mL). The radioactivity of pooled basic fractions was counted by a gamma counter. A range between 16 and 71 keV was used for measuring ^125I and between 95 and 700 for ^77Br. When radioactivity of ^77Br was counted, the crossover of ^125I activity into the ^77Br channel was negligible. More than one month after the experiment, the radioactivity of ^125I was determined because at that time ^77Br has been decayed and its radioactivity was negligible. The protein in the cell was quantified by a BCA Protein Assay Kit. All data were expressed as %dose/µg protein.

[2] = In vitro stability in 0.1 M PBS (pH 7.4); assay type: physicochemical; settings: 24 h incubation at 37 °C, purity by TLC
Description: The stability of [^77Br]2 and [^77Br]3 in 0.1 M phosphate-buffered saline (PBS) (pH 7.4) was high (93.6 ± 0.9% and 93.0 ± 0.6%, respectively). There was no significant decomposition after 24 h incubation at 37 °C for either radiotracer.
The stability of radiolabeled compounds, [^77Br]2 and [^77Br]3, were analyzed as described previously. The purities radiolabeled compounds were determined by TLC using chloroform/methanol = 5/1 and 20/1 as a developing solvent for [^77Br]2 and [^77Br]3, respectively. The results were confirmed by RP-HPLC.

[3] = n-octanol/phosphate buffer partition coefficient; assay type: physicochemical; settings: n-octanol / 0.1 M phosphate buffer pH 7.4; read-out: n-octanol/phosphate buffer partition coefficient (log P)
Description: The n-octanol/phosphate buffer partition coefficients of [^77Br]2 were 2.36 ± 0.06 which were lower than [^77Br]3 (3.02 ± 0.04). These values are lower than radioiodinated compounds, [^125I]4 and [^125I]5 at 2.71 ± 0.03 and 3.19 ± 0.17, respectively.
Partition coefficients of [^77Br]2 and [^77Br]3 into n-octanol and 0.1 M phosphate buffer (PB) pH 7.4 were determined using the method described previously. The measurement was performed in quadruplicate. The partition coefficient was determined by calculating the ratio of cpm/mL of n-octanol to that of buffer and expressed as log P. Radioactivity of each layer were counted by a gamma counter.

BxPC3-luc tumor = experiment: In vivo blocking study in tumor-bearing mice; set-up: species or system BALB/c nu/nu mice; settings: 1 h postinjection
Description: The tumor uptake of both the control and blocking groups was 1.61 ± 0.24 and 0.96 ± 0.20% ID/g, respectively. Thus, the figures are shown as not only % ID/g but also as tumor-to-blood ratio.
Figure 7 (a) Tumor uptake and (b) tumor/blood uptake ratios of [^77Br]2 and [^125I]4 at 1 h postinjection with 1 (40 mg/kg) (blocking group) or no treatment control group. Data were presented as means ± SD for three or four mice. Significance was determined using an unpaired Student’s t-test (^*p < 0.05, ^**p < 0.01).
For in vivo blocking studies, the tumor-bearing mice were intraperitoneally injected with 200 µL of 1 (40 mg/kg in 15% ethanol and 85% water) 1 h before intravenous injection of 100 µL of saline solution containing [^77Br]2 and [^125I]4 or [^77Br]3 and [^125I]5 (74 kBq, respectively), 1% tween-80 and 10% ethanol. At 1 h postinjection of radiotracers, the mice were sacrificed.
Tissues in mice were resected and weighed. The radioactivity of the tissues was counted by a gamma counter and counts were corrected for background radiation. The data were expressed as percent injection dose per gram tissue (%ID/g).

With `COCCOc1ccc2c(c1)ncn2-c1ccc2c([77Br])ccc(N3CCC(N)CC3)c2n1` [[^77Br]2, [^77Br]1-{5-Bromo-2-[5-(2-methoxyethoxy)-1H-benzo[d]imidazol-1-yl]quinoline-8-yl}piperidin-4-amine] the “Cellular uptake in BxPC3-luc cells” value [1] was “higher than that in MCF7 cells; also recorded: higher uptake of [^77Br]2 than that of [^77Br]3”, the “Stability in 0.1 M PBS (pH 7.4)” value [2] was 93.6 ± 0.9% and the logP [3] was 2.36 ± 0.06. The “Tumor-to-blood ratio, blocking group vs control” value (BxPC3-luc tumor; pretreatment with 1 (40 mg/kg)) was “significantly reduced” and the “Tumor uptake, blocking group” value (BxPC3-luc tumor; pretreatment with 1 (40 mg/kg, intraperitoneal, 1 h before)) was 0.96 ± 0.20 % ID/g.
For `COCCOc1ccc2c(c1)ncn2-c1ccc2cccc(N3CCC(NC(=O)c4cccc([77Br])c4)CC3)c2n1` [[^77Br]3, [^77Br]-N-3-bromobenzoyl-1-{2-[5-(2-methoxyethoxy)-1H-benzo[d]imidazol-1-yl]quinolin-8-yl}-piperidin-4-amine], the “Cellular uptake in BxPC3-luc cells” value [1] was “more highly accumulated in BxPC3-luc cells than in MCF7 cells”, the “Stability in 0.1 M PBS (pH 7.4)” value [2] was 93.0 ± 0.6% and the logP [3] was 3.02 ± 0.04.
